Six compounds from PMC6238539, “Discovery of a cofactor-independent inhibitor of Mycobacterium tuberculosis InhA” (Life Science Alliance, 2018) can be followed below.

Where two headings read alike, the source gives them in different places. Where only a bound is given, the exact number is not on record here.

Series [1] has as its system M. tuberculosis H37Rv. Nature of the series: microbe, parasite or virus in culture. The series is classed as cell-based, Mycobacterium tuberculosis. The following applies: for IC90: Mycobacterium tuberculosis, H37RV, whole-cell M. tuberculosis.
In series [2] the target is T1, M. tuberculosis InhA (Mycobacterium tuberculosis, UniProt P9WGR1). Put plainly: InhA in vitro inhibition assay. Type of series: biochemical.
T1 sequence (P9WGR1 whole entry, looked up): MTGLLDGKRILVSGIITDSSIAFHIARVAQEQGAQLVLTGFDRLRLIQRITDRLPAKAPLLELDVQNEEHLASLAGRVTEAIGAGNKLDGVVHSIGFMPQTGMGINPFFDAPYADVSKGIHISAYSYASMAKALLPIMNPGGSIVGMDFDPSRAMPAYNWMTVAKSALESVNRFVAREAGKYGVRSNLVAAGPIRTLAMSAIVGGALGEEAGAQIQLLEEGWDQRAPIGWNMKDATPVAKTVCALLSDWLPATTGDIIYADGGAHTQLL
Series [3] deals with intracellular M. tuberculosis in THP-1 cells. Nature of the series: microbe, parasite or virus in culture. The series is classed as cell-based. The following applies: Mycobacterium tuberculosis.
In series [4] the test system is M. tuberculosis H37Rv. Put plainly: Kill kinetics under replicating conditions. The series is classed as cell-based, Mycobacterium tuberculosis.
Series [5] in a line: in vitro. The following applies: human.
The nature of series [6]: in vitro. The series is classed as cell-based. The following applies: human; read-out: HepG2 cytotoxicity IC50. Here is the method: HepG2 human liver cells (ATCC HB 8065) were propagated in DMEM containing either 25 mM glucose or 10 mM galactose plus 10% vol/vol FBS, 1 mM sodium pyruvate, 2 mM Corning glutagro, 100 U/ml penicillin, and 100 μg/ml streptomycin. The cells were seeded in 384-well plates at 1,800 cells per well and incubated in a humidified incubator at 37°C, 5% CO2. Compounds were solubilized in DMSO and assayed using a 10-point threefold serial dilution. Compounds were added 24 h post cell seeding to a final assay concentration of 1% DMSO and highest compound concentration of 100 μM. The cells were incubated for 72 h and viability measured using CellTiter-Glo reagent (Promega) and reading RLU. Growth inhibition curves were fitted using the Levenberg–Marquardt algorithm. The IC50 was defined as the compound concentration that produced 50% of the inhibitory response against HepG2 cells.

For series [7], the target named is T1, M. tuberculosis InhA. Put plainly: biochemical. The series is classed as binding.
The subject of series [8] is M. tuberculosis Erdman. The series is classed as in vivo, Mycobacterium tuberculosis. As to conditions: dose escalation study (Table S4), 25 mg/kg, day 22.

Usually IC90 stands for the point of the concentration-response curve where the effect stands at 90%. The low end stands for an effect from little substance, the high end for a need for much substance. What is called IC50 is the point on the concentration scale where inhibition reaches its midpoint. Consider `OB1OCc2ccc(Oc3ccc(C(F)(F)F)cc3)cc21` [AN2918], for which, in series [1], the IC90 is over 200 µM. This compound had an IC50 in series [2] of 44 µM.

In series [1], `N#Cc1ccc(Oc2ccc3c(c2)COB3O)c(/C=N/O)c1` [AN3438] registered an IC90 of 16 ± 1.2 µM. In series [2], this compound had an IC50 of 12 µM.

Consider `CS(=O)(=O)N1N=Cc2ccc(Oc3ccc(C#N)cc3)cc2B1O` [AN6534], for which, in series [1], the IC90 worked out at 36 ± 1.7 µM. This compound displayed an IC50 in series [2] of 79 µM.

As for `CS(=O)(=O)N1N=Cc2ccc(Oc3ccc(C(F)(F)F)cc3/C=N/O)cc2B1O` [AN12541], the IC50 was 0.046 ± 0.013 µM in series [3], 0.4 µM in series [2], over 50 µM in series [5] and over 100 µM in series [6]. The figures for the IC90 in series [3] and in series [1] were 0.11 ± 0.01 µM and 0.11 ± 0.21 µM, respectively. In addition, in series [4], the bactericidal activity entry is on record as “similarly active”. Besides, in series [1] (versus AN6534), the “increase in potency against M. tuberculosis” value worked out at 350 fold. Further, in series [2] (versus AN6534), the “increase in potency against purified InhA” value is reported as 190 fold.

A word on the Kd: it is a measure of binding affinity in units of concentration. High values mean lower affinity, low ones higher affinity. For `CCS(=O)(=O)N1N=Cc2cc(Oc3ccc(C(F)(F)F)cc3/C=N/O)ccc2B1O` [AN12908], in series [7], the “cofactor dependence of binding to InhA” value is given as “dependent on NAD^+ for binding”. Moreover, in series [7] (cofactor: NAD^+), the Kd is 0.847 ± 0.318 µM, the “N (stoichiometry of binding)” value worked out at 0.49 ± 0.022, the “∆H” value is on record as −25,010 ± 1,496 cal/mol and the “∆S” value was −56 cal/mol/deg. This compound had an IC90 in series [1] of 7 ± 2.6 µM. The same compound returned an IC50 in series [2] of 2.3 µM.

For the compound `NNC(=O)c1ccncc1` [INH, isoniazid], the entries for the “Mean ± SEM Log10 CFU” value in series [8] (lung) and in series [8] (spleen) were 4.6 ± 0.06 Log10 CFU and 2.4 ± 0.15 Log10 CFU, respectively. Besides, the 90% effect level in series [1] (IC90) was put at 0.2 µM.
